This is an account of results in patent publication US20240390357A1, “PYRIDINES AND THEIR USE IN TREATMENT OF GBA-RELATED DISEASES” (ZEVRA DENMARK A/S, priority 2021, published 2024).

As usually defined, the Emax is the size of the effect at its maximum, as opposed to the concentration needed.

The structures appear in SMILES notation. Marks after values point to notes of the source that are not given here.

This assay concerns the target T1, GBA (glucosylceramidase, GCase), L444P GBA mutation (Homo sapiens, UniProt P04062, L483P).
T1 construct: Human fibroblast cell line GM10915 harboring the L444P GBA mutation was obtained from Coriell Biorepositories; host or cells: GM10915 human fibroblasts
T1 sequence (P04062 40-536 L483P): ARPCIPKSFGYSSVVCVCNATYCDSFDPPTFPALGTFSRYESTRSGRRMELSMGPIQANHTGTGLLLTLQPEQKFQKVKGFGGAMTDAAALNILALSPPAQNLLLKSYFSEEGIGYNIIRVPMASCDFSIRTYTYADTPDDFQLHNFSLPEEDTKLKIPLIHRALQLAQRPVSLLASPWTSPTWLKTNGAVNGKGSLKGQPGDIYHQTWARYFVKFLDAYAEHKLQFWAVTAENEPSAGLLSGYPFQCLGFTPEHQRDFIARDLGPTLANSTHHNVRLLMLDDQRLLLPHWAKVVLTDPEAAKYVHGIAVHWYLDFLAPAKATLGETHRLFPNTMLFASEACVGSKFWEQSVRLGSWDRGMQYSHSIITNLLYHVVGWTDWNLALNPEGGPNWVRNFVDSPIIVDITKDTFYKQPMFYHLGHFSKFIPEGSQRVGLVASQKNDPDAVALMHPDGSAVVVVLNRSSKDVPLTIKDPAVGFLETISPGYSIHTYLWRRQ
Put plainly: GCase activity assay (4-MUG) in GM10915 fibroblasts, normalised to crystal violet staining. As to conditions: five days exposure; for GBA EC1.5: concentration where Percent GCase activity = 150% (1.5-fold induction), human fibroblast cell line GM10915 (L444P GBA), 8-point dose range; for Emax / GBA Emax: maximum Percent GCase activity in the dose range tested, relative to basal activity of untreated cells, GM10915 (L444P GBA). It counts as cell-based. On the procedure: Human fibroblast cell line GM10915 harboring the L444P GBA mutation was obtained from Coriell Biorepositories.
The GM10915 cell line was cultured under standard cell culture conditions (37° C. and 5% CO2) in complete DMEM medium supplemented with nonessential amino acids (NEAA), 1% Pen-Strep and 12% FCS. Cells were seeded at a density of 10^4 cells/well in 100 μL complete medium in one black 96-well plate for glucosylceramidase (GCase) activity measurement and in one clear 96-well plate for crystal violet staining to correct for cell density. Crystal violet staining is performed to obtain quantitative information about the relative density of cells adhering to multi-wells plates.
The assay was adapted from Sawkar et al (2002) and briefly described in the following. The day after seeding of cells, the medium was replaced with fresh medium containing the compounds to be tested. Compounds were tested in duplicate and in an 8-point diluted dose range to obtain a dose response. Cells were exposed with compounds for five days. Fresh compound was added every 2-3 days. PBS was included to define the basal level of GCase activity.
Cells were washed three times with 200 μL PBS per well and 50 μL of 2.5 mM 4-MUG buffer (4-MUG dissolved in 0.2 M acetate buffer pH 4.0) was added and the cells were incubated at 37° C., 5% CO2 for 23 hours. The reaction was stopped by adding 150 μL 0.2 M glycine buffer (pH 10.8). Fluorescence was measured with a Varioskan® Flash reader (Thermo Scientific) at an excitation/emission setting of 365/445 nm.
Cells were treated with compounds in a parallel setup identical to the setup to test for GCase activity. At the end of compound treatment, cells were washed once with 200 μL PBS per well and 50 μL 0.1% w/v crystal violet (in H20) was added. Following 10 min. of incubation, the crystal violet solution was removed, and the cells were washed three times with 200 μL PBS and 100 μL 1% SDS was added to solubilize the stain.
The plate was agitated on an orbital shaker for 10-30 min. Absorbance (A) is measured at […] using a Varioskan® Flash reader (Thermo Scientific).
The fluorescence signal (F) derived from the GCase measurement is normalized to the absorbance signal (A) derived from the crystal violet staining. The percent GCase activity resulting from compound treatment is calculated relative to the basal activity obtained from untreated cells.
Maximal effect of compounds (E max) is determined from the dose response effects as the maximum “Percent GCase activity” achieved in the dose range tested.

As to `CN1CCCC(c2ccc(CN3CCCCC3)nc2)C1` (centres unmarked) [compound 776], the “GBA EC1.5” value stood at 4.3 µM and the Emax amounted to 200%. Consider `Cc1ccc(CN2CCCCC2)nc1C1CCN(C)CC1` [compound 801], for which the “GBA EC1.5” value was 3.9 µM and the Emax amounted to 173%. On the same counts, the results for `c1cc(CN2CCCCC2)ncc1C1CCNC1` (centres unmarked) [compound 808] are 28.6 µM and 175%. For `c1nc(C2CCNCC2)cnc1CN1CCCCC1` [compound 753] the same measures were 19.1 µM and 190%. In the case of `Fc1cc(C2CCNCC2)cnc1CN1CCCCC1` [compound 880], the “GBA EC1.5” value was 4.3 µM and the Emax is 237%. On the same counts, the results for `c1cc(CN2CCCCC2)ncc1C1CCCNC1` (centres unmarked) [compound 757] are 4.2 µM and 214%. On the same counts, the results for `c1cn2cc(CN3CCCCC3)nc2cc1C1CCNCC1` [compound 854] are 9.4 µM and 194%. For `Cc1cc(CN2CCCCC2)cc(C2CCNCC2)n1` [compound 764] the same measures were 3.3 µM and 227%.

For the compound `c1cc(C2CCNCC2)ncc1CN1CCCCC1` [compound 759], the “GBA EC1.5” value was 6.6 µM and the Emax was 200%.

Turning to `C1=C(c2ccc(CN3CCCCC3)cn2)CNC1` [compound 666], the “GBA EC1.5” value is 9.2 µM and the Emax came to 253%. In the case of `CC(c1cncc(C2CCCNC2)c1)N1CCCCC1` (centres unmarked) [compound 761], the “GBA EC1.5” value is 5.2 µM and the Emax is 205%. For the compound `c1nc(C2CCNCC2)sc1CN1CCCCC1` [compound 620], the “GBA EC1.5” value worked out at 3.5 µM and the Emax worked out at 236%.

For the compound `CN1CCC(c2cccc(CN3CCCCC3)n2)C1` (centres unmarked) [compound 798], the “GBA EC1.5” value is 2.5 µM and the Emax came out at 250%. For `CN1CCC(c2cnc(CN3CCCCC3)cn2)CC1` [compound 774] the same measures were 9.7 µM and 198%. For `c1c(C2CCNC2)noc1CN1CCCCC1` (centres unmarked) [compound 654], the “GBA EC1.5” value is 4.9 µM and the Emax came to 381%. For `CN1CCCC(c2cccc(CN3CCCCC3)n2)C1` (centres unmarked) [compound 796] the same measures were 2.6 µM and 267%. In the case of `c1cc(C2CCCNC2)ncc1CN1CCCCC1` (centres unmarked) [compound 811], the “GBA EC1.5” value was determined as 3.4 µM and the Emax came to 263%. Turning to `Nc1c(Br)cc(Br)cc1CN[C@H]1CC[C@H](O)CC1` [Ambroxol, reference compound], the “GBA EC1.5” value is recorded as >20* *The 1.5-fold induction criteria was not reached within the tested concentration range μM.

Turning to `Cc1cc(C2CCNCC2)nc(CN2CCCCC2)n1` [compound 739], the “GBA EC1.5” value stood at 30.8 µM and the Emax worked out at 176%. Take `c1cc(CN2CCCCC2)nc(C2CCNC2)c1` (centres unmarked) [compound 793]: the “GBA EC1.5” value was 29.2 µM and the Emax is 165%. Take `c1cn(C2CCNCC2)nc1CN1CCCCC1` [compound 624]: the “GBA EC1.5” value is 21 µM and the Emax came out at 189%.

As to `CN1CCCC(c2cc(CN3CCCCC3)ncn2)C1` (centres unmarked) [compound 802], the “GBA EC1.5” value came to 8.8 µM and the Emax was 256%. On the same counts, the results for `CN1CCCC(c2ccc(CN3CCCCC3)cn2)C1` (centres unmarked) [compound 810] are 4.9 µM and 199%. Consider `CCCCCO[C@H]1CC[C@H](NC(=O)c2cnn3c(C)cc(C)nc23)CC1` [LTI-291, reference compound], for which the “GBA EC1.5” value is 112 µM. Regarding `c1ncc(C2CCNC2)cc1CN1CCCCC1` (centres unmarked) [compound 769], the “GBA EC1.5” value was 18.9 µM and the Emax was determined as 205%. With `Cc1cc(CN2CCCCC2)cnc1C1CCCNC1` (centres unmarked) [compound 758], the “GBA EC1.5” value turned out to be 3.1 µM and the Emax was 233%. As to `Cc1cc(CN2CCCCC2)cc(C2CCN(C)CC2)n1` [compound 795], the “GBA EC1.5” value was 7.0 µM and the Emax came to 185%.

As to `Cc1cc(CN2CCCCC2)cnc1C1CCN(C)CC1` [compound 777], the “GBA EC1.5” value was determined as 6.9 µM and the Emax was determined as 200%.

For `c1c(C2CCNCC2)noc1CN1CCCCC1` [compound 586], the “GBA EC1.5” value came to 7.5 µM and the Emax worked out at 234%. For `c1cc(C2CCNCC2)nnc1CN1CCCCC1` [compound 855] the same measures were 43.3 µM and 163%. On the same counts, the results for `COc1ncc(C2CCN(C)C2)cc1CN1CCCCC1` (centres unmarked) [compound 812] are 6.7 µM and 255%. On the same counts, the results for `CN1CCC(c2cccc(CN3CCCCC3)n2)CC1` [compound 794] are 3.0 µM and 269%. Regarding `Cn1nc(C2CCCNC2)cc1CN1CCCCC1` (centres unmarked) [compound 708], the “GBA EC1.5” value amounted to 16 µM and the Emax came out at 205%. For `c1cc2c(CN3CCCCC3)c[nH]c2nc1C1CCCNC1` (centres unmarked) [compound 833] the same measures were 12.1 µM and 203%. On to `COc1ncc(C2CCNCC2)cc1CN1CCCCC1` [compound 715], for which the “GBA EC1.5” value came out at 24.8 µM and the Emax worked out at 160%. In the case of `Cc1cc(C2CCCNC2)nc(CN2CCCCC2)n1` (centres unmarked) [compound 737], the “GBA EC1.5” value was 21.5 µM and the “GBA Emax” value is 203%. For `COc1ncc(C2CCN(C)CC2)cc1CN1CCCCC1` [compound 735], the “GBA EC1.5” value was found to be 2.3 µM and the Emax came out at 212%. With `Fc1c(CN2CCCCC2)ccnc1C1CCNCC1` [compound 846], the “GBA EC1.5” value came out at 2.8 µM and the Emax turned out to be 245%. On the same counts, the results for `Cc1cc(C2CCCN(C)C2)nc(CN2CCCCC2)n1` (centres unmarked) [compound 738] are 5.4 µM and 248%. For `CN1CCCC(c2cnc(CN3CCCCC3)cn2)C1` (centres unmarked) [compound 773] the same measures were 3.9 µM and 236%. As for `Cc1cc(C2CCCNC2)nc(CN2CCCCC2)n1` (centres unmarked) [compound 730], the “GBA EC1.5” value was 5.0 µM and the “GBA Emax” value came to 234%.

For `CN1CCC(c2cc(CN3CCCCC3)ncn2)CC1` [compound 784], the “GBA EC1.5” value is 6.5 µM and the maximal response (Emax) worked out at 155%. As to `COc1ncc(C2CCNC2)cc1CN1CCCCC1` (centres unmarked) [compound 803], the “GBA EC1.5” value turned out to be 6.0 µM and the Emax is 203%. With `Cc1ccc(CN2CCCCC2)nc1C1CCNCC1` [compound 778], the “GBA EC1.5” value worked out at 7.4 µM and the Emax was 152%. In the case of `c1nc(CN2CCCCC2)cc(C2CCNC2)n1` (centres unmarked) [compound 832], the “GBA EC1.5” value is 18.0 µM and the Emax was 175%.

Turning to `Cc1cc(CN2CCCCC2)cnc1C1CCNCC1` [compound 760], the “GBA EC1.5” value worked out at 4.3 µM and the Emax worked out at 211%. For the compound `c1cc(CN2CCCCC2)nc(C2CCNCC2)c1` [compound 788], the “GBA EC1.5” value turned out to be 8.0 µM and the Emax turned out to be 278%.

With `c1nc(C2CCCNC2)cnc1CN1CCCCC1` (centres unmarked) [compound 754], the “GBA EC1.5” value came to 11.8 µM and the Emax was found to be 180%. For `COc1ncc(C2CCCNC2)cc1CN1CCCCC1` (centres unmarked) [compound 729] the same measures were 2.7 µM and 223%. On the same counts, the results for `c1cc(CN2CCCCC2)ncc1C1CCNCC1` [compound 775] are 24.5 µM and 186%.
